In PMC3124771 (Journal of immunology (Baltimore, Md. : 1950), 2011):

Tested on: DR0301-restricted E2_281-300-specific T-cell line
Assay: Tetramer staining of sorted T-cell line with peptide-loaded DR0301 tetramers
Assay type: cell-based, human
Settings: quadrant boundary set by unloaded tetramer (Figure 2B)

Q: For “E2_285-300: truncated version of E2_281-300; minimal epitope”, which “Staining of T-cell line with tetramers loaded with peptide” value is on record?
A: could be stained
